Measured values: patent publication US20240109912A1, “TRICYCLIC PYRIMIDINES AS CYCLIN-DEPENDENT KINASE 7 (CDK7) INHIBITORS” (JANSSEN PHARMACEUTICA NV, priority 2020, published 2024)
“And” between values parts separate entries of the source, which are not always exact repeats. Identical values can stand only once. Like-named read-outs stand apart in the source and are kept apart here.

What was measured:
[1] = biological target: CDK7/cyclinH/MAT1 trimeric complex (Homo sapiens (Human), UniProt P50613); experiment: In vitro CDK7 assay, potency of irreversible covalent inhibitors (kinact/KI)
[2] = system: RNA polymerase II Serine 5 phosphorylation (CDK7) in A549 cells
[3] = system: RNA polymerase II Serine 5 phosphorylation in A549 cells overexpressing CDK7 mutant (C312S); experiment: Imaging-based cellular RNA PolII Ser5 phosphorylation assay in A549 cells overexpressing CDK7-mutant (C312S); type: cell-based, human; conditions: for IC50: Homo sapiens, A549, A549 cells overexpressing CDK7 mutant (C312S), read-out: CDK7_ A549 mutant hCDK7(pIC50) (converted)
How it was run: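 A stably transduced A549 pool overexpressing CDK7 C312S, a mutant that blocks covalent binding at Cys312, while retaining endogenous wild-type CDK7 was used. Ser5 phosphorylation was measured by imaging, and IC50 values were derived.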

[4] = CDK7 (20 nM enz.) (KI, μM), 20 nM enz.
[5] = read-out: CDK7 (20 nM enz.) (kinact, s^−1), 20 nM enz.
[6] = read-out: CDK7 (20 nM enz.) (kinact/ KI, M^−1*s^−1), 20 nM enz.
[7] = read-out: CDK7 (20 nM enz.) (kobs/[I], M^−1*s^−1), 20 nM enz.

Chain of CDK7/cyclinH/MAT1 trimeric complex (P50613 whole entry): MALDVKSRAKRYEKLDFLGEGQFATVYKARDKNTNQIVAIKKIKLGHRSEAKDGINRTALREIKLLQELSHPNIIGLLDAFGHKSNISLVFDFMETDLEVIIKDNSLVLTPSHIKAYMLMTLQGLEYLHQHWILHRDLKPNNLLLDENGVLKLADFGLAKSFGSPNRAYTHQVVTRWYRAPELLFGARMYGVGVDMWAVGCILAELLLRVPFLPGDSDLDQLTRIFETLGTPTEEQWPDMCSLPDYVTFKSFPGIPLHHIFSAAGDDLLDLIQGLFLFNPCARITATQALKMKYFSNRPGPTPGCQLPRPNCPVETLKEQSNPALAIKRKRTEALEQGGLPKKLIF
Chain of CDK7/cyclinH/MAT1 trimeric complex (P51946 whole entry partner): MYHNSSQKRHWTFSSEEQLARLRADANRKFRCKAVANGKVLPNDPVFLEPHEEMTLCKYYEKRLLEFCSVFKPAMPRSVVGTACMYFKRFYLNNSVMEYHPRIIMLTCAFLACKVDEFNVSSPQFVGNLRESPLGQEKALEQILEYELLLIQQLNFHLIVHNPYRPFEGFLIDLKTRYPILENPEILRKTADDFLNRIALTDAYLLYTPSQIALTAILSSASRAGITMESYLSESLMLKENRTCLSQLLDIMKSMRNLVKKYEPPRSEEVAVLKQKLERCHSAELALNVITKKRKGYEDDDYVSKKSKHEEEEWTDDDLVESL
Chain of CDK7/cyclinH/MAT1 trimeric complex (P51948 whole entry partner): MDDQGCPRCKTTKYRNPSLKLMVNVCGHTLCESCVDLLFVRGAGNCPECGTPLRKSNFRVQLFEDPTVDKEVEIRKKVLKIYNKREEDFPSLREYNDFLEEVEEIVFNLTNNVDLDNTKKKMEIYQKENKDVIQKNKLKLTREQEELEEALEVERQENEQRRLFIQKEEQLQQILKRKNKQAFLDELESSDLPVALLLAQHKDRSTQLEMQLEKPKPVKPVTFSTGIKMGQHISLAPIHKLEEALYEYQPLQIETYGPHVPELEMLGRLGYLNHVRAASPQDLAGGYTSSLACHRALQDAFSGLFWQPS

**Q.** For C=CC(=O)N1CCC(N2CC(c3cc4c(c(C5CC5)c3)O[C@@H](C)c3c(ncnc3N3CCS(=O)(=O)CC3)N4)C2)C1 (mixture of isomers) [compound 97], which Ki [1, 4] is on record?
**A.** 0.0068 µM

**Q.** And the kinact [1, 5]?
**A.** 2.76e-05 s⁻¹

**Q.** And the kinact/KI [1, 6]?
**A.** 4030 M⁻¹ s⁻¹

**Q.** And the IC50 [2]?
**A.** 234 nM

**Q.** And the melting point?
**A.** 220 °C

**Q.** What about the IC50 [3] of the same compound?
**A.** > 10000 nM

**Q.** What does the source list for CC#CC(=O)N1CCC(C)(N2CC(c3cc(C)c4c(c3)Nc3ncnc(N5CCS(=O)(=O)CC5)c3[C@@H](C)O4)C2)C1 (mixture of isomers) [compound 147]?
**A.** IC50 [2]: 309 nM; melting point: 244 °C; IC50 [3]: > 10000 nM

**Q.** With CC#CC(=O)N1CCC(N2CC(c3cc(C)c4c(c3)Nc3ncnc(N5CCS(=O)(=O)CC5)c3C(C)O4)C2)CC1 (racemic) [compound 123] as the compound, how does the IC50 [2] read?
**A.** 50.1 nM

**Q.** What about the melting point of the same compound?
**A.** 218 °C

**Q.** What about the IC50 [3] of the same compound?
**A.** 8320 nM

**Q.** For C=CC(=O)N1CC(N2CC[C@H](c3ccc4c(c3)Nc3ncnc(N5CCOCC5)c3CO4)[C@H](C)C2)C1 (single isomer, unassigned) [compound 37], which Ki ([1]; CDK7 (KI(μM)), Table B) is on record?
**A.** 0.164 µM and 0.152 µM

**Q.** And the “CDK7 (kinact, s^−1)” value ([1]; Table B)?
**A.** 7.29e-05 s⁻¹

**Q.** And the “CDK7 (kinact/KI, M^−1*s^−1)” value ([1]; Table B)?
**A.** 478.485 M⁻¹ s⁻¹

**Q.** And the kinact ([1]; read-out: CDK7 (kinact, s^−1), Table B)?
**A.** 0.000137 s⁻¹

**Q.** And the kinact/KI ([1]; read-out: CDK7 (kinact/KI, M^−1*s^−1), Table B)?
**A.** 832 M⁻¹ s⁻¹

**Q.** And the IC50 [2]?
**A.** 912 nM and 676 nM

**Q.** What about the melting point of the same compound?
**A.** 217 °C

**Q.** And the IC50 [3]?
**A.** > 10000 nM

**Q.** With C=CC(=O)N1CC(N2CCC(c3cc(F)c4c(c3)Nc3ncnc(N5CCOCC5)c3[C@@H](C)O4)CC2)C1 (single isomer, unassigned) [compound 46] as the compound, how does the Ki [1, 4] read?
**A.** 0.094 µM

**Q.** And the kinact [1, 5]?
**A.** 5.18e-05 s⁻¹

**Q.** And the kinact/KI [1, 6]?
**A.** 667 M⁻¹ s⁻¹

**Q.** What about the IC50 [2] of the same compound?
**A.** 209 nM

**Q.** And the melting point?
**A.** 175 °C

**Q.** What about the IC50 [3] of the same compound?
**A.** > 10000 nM

**Q.** With C=CC(=O)N1CC(N2CCC(c3cc(F)c4c(c3)Nc3ncnc(N5CCOCC5)c3[C@H](C)O4)CC2)C1 (single isomer, unassigned) [compound 49] as the compound, how does the Ki [1, 4] read?
**A.** 0.118 µM

**Q.** And the kinact [1, 5]?
**A.** 5.65e-05 s⁻¹

**Q.** And the kinact/KI [1, 6]?
**A.** 478 M⁻¹ s⁻¹

**Q.** What about the IC50 [2] of the same compound?
**A.** 178 nM

**Q.** What about the melting point of the same compound?
**A.** 180 °C

**Q.** And the IC50 [3]?
**A.** > 10000 nM

**Q.** For C=CC(=O)N1CC(N2CCC(c3cc(F)c4c(c3)Nc3ncnc(-c5cnn(C)c5)c3[C@@H](C)O4)CC2)C1 (single isomer, unassigned) [compound 52], which Ki [1, 4] is on record?
**A.** 0.0825 µM

**Q.** And the kinact [1, 5]?
**A.** 5.9e-05 s⁻¹

**Q.** What about the kinact/KI [1, 6] of the same compound?
**A.** 714 M⁻¹ s⁻¹

**Q.** And the IC50 [2]?
**A.** 123 nM

**Q.** And the melting point?
**A.** 245 °C

**Q.** What about the IC50 [3] of the same compound?
**A.** > 10000 nM

**Q.** For C=CC(=O)N1CC(N2CCC(c3cc(F)c4c(c3)Nc3ncnc(-c5cnn(C)c5)c3[C@H](C)O4)CC2)C1 (single isomer, unassigned) [compound 53], which kinact/KI [1, 7] is on record?
**A.** 3.8 M⁻¹ s⁻¹

**Q.** What about the IC50 [2] of the same compound?
**A.** > 10000 nM

**Q.** And the melting point?
**A.** 260 °C

**Q.** And the IC50 [3]?
**A.** > 10000 nM

**Q.** Which results are given for C=CC(=O)N1CC(N2CCC(c3cc4c(cn3)O[C@H](C)c3c(ncnc3N3CCOCC3)N4)CC2)C1 (single isomer, unassigned) [compound 60]?
**A.** CDK7 (20 nM enz.) (kinact, s^−1) ([1]; 20 nM enz.): 5.21e-05 s⁻¹; CDK7 (20 nM enz.) (kinact/ KI, M^−1*s^−1) ([1]; 20 nM enz.): 184.255 M⁻¹ s⁻¹; Ki [1, 4]: 0.283 µM; IC50 [2]: 257 nM; melting point: 250 °C; CDK7_ A549 mutant hCDK7(pIC50) ([3]; A549 cells overexpressing CDK7 mutant (C312S)): <5

**Q.** What does the source list for C=CC(=O)N1CC(N2CCC(c3ccc4c(c3)Nc3ncnc(N5CCOCC5)c3[C@H](CC)O4)CC2)C1 (single isomer, unassigned) [compound 75]?
**A.** Ki [1, 4]: 0.265 µM; kinact [1, 5]: 3.84e-05 s⁻¹; kinact/KI [1, 6]: 145 M⁻¹ s⁻¹; IC50 [2]: 646 nM; melting point: 123 °C; IC50 [3]: > 10000 nM

**Q.** What does the source list for C=CC(=O)N1CC(N2CCC(c3ccc4c(c3)Nc3ncnc(N5CCOCC5)c3[C@@H](CC)O4)CC2)C1 (single isomer, unassigned) [compound 76]?
**A.** Ki [1, 4]: 0.457 µM; kinact [1, 5]: 3.9e-05 s⁻¹; kinact/KI [1, 6]: 85.3 M⁻¹ s⁻¹; IC50 [2]: 1660 nM; melting point: 124 °C; IC50 [3]: > 10000 nM

**Q.** What does the source list for C=CC(=O)N1CC(N2CCC(c3cc(C)c4c(c3)Nc3ncnc(N5CCS(=O)(=O)CC5)c3[C@@H](C)O4)CC2)C1 (single isomer, unassigned) [compound 84]?
**A.** Ki [1, 4]: 0.148 µM; kinact [1, 5]: 8.33e-05 s⁻¹; kinact/KI [1, 6]: 563 M⁻¹ s⁻¹; IC50 [2]: 112 nM; melting point: > 300 °C; IC50 [3]: > 10000 nM

**Q.** With C=CC(=O)N1CC(N2CCC(c3cc4c(c(C)n3)O[C@H](C)c3c(ncnc3N3CCS(=O)(=O)CC3)N4)CC2)C1 (single isomer, unassigned) [compound 85] as the compound, how does the kinact/KI [1, 7] read?
**A.** 725 M⁻¹ s⁻¹

**Q.** What about the IC50 [2] of the same compound?
**A.** 67.6 nM

**Q.** What about the melting point of the same compound?
**A.** 240 °C

**Q.** What about the IC50 [3] of the same compound?
**A.** > 10000 nM

**Q.** Which results are given for C=CC(=O)N1CC(N2CCC(c3cc4c(c(C)n3)O[C@@H](C)c3c(ncnc3N3CCS(=O)(=O)CC3)N4)CC2)C1 (single isomer, unassigned) [compound 86]?
**A.** Ki [1, 4]: 0.117 µM; kinact [1, 5]: 6.46e-05 s⁻¹; kinact/KI [1, 6]: 551 M⁻¹ s⁻¹; IC50 [2]: 525 nM; melting point: 247 °C; IC50 [3]: > 10000 nM
